Source: PMC2745557 (FEBS letters, 2009)

What was measured:
Bombyx AKHR [1] = target: T1, Bombyx AKHR (Bombyx mori, UniProt Q8T6U9); type: cell-based
T1 sequence (Q8T6U9 1-405): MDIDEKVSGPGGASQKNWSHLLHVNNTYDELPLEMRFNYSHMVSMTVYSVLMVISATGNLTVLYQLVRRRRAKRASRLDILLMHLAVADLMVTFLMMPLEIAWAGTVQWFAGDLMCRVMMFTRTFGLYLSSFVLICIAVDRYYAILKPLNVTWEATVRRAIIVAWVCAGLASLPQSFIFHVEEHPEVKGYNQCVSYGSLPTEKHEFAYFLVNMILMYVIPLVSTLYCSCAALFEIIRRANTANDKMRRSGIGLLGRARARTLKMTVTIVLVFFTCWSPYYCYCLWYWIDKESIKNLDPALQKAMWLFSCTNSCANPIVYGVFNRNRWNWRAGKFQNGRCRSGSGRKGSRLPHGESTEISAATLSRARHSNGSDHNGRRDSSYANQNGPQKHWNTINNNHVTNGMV

Bombyx AKHR [2] = target: T1, Bombyx AKHR; conditions: compared with AKH1; ref [12]; cited from earlier work

cholera toxin [CTX]
effect of toxin pre-treatment on cAMP generation (Bombyx AKHR [1]): remarkable increase in the cellular levels of cAMP

Pertussis toxin [PTX]
effect of toxin pre-treatment on cAMP generation (Bombyx AKHR [1]): no effect on cAMP generation

Heliothis zea hypertrehalosaemic hormone [Hez-HrTH]
affinity of activation of Bombyx AKHR (Bombyx AKHR [2]): higher affinity than that of AKH1
